Experimental data: patent US8962608B2, “Cycloalkylnitrile pyrazole carboxamides as janus kinase inhibitors” (Merck Sharp & Dohme Corp., priority 2011, dated 2015)

Target: JAK1 (recombinant purified GST-tagged catalytic domain) (Homo sapiens (Human), UniProt P23458);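 further: biochemical assay with HTRF read-out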
Experiment: biochemical

Sequence of JAK1 (recombinant purified GST-tagged catalytic domain) (P23458 875-1153): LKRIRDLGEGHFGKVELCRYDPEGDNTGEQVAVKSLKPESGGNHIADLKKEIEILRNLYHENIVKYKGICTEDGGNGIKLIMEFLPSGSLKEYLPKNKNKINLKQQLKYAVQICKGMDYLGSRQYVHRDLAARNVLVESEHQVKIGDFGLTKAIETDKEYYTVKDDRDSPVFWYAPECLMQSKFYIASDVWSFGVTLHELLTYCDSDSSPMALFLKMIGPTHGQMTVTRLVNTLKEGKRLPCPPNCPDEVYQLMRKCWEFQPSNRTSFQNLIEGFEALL

Q: How did the IC50 turn out when `N#C[C@H]1CCCCC1n1cc(C(N)=O)c(Nc2ccc3c(c2)CCS3(=O)=O)n1` (mixture of isomers) [Example 20, 1-[(1S,2S and 1R,2R)-2-Cyanocyclohexyl]-3-[(1,1-dioxido-2,3-dihydro-1-benzothiophen-5-yl)amino]-1H-pyrazole-4-carboxamide] was run?
A: The IC50 was 0.4 nM.

Q: With `CN(C)[C@H]1CCC(n2cc(C(N)=O)c(Nc3ccc(S(=O)(=O)C(F)(F)F)cc3)n2)[C@@H](C#N)C1` (mixture of isomers) [Example 27-8, 1-[(1S,2S,4S and 1R,2R,4R)-2-cyano-4-(dimethylamino)cyclohexyl]-3-({4-[(trifluoromethyl)sulfonyl]phenyl}amino)-1H-pyrazole-4-carboxamide] as the molecule, how does the IC50 read?
A: Its IC50 is 0.3 nM.

Q: `CN[C@H]1CCC(n2cc(C(N)=O)c(Nc3ccc(S(=O)(=O)C(F)(F)F)cc3)n2)[C@@H](C#N)C1` (mixture of isomers) [Example 27-9, 1-[(1S,2S,4S and 1R,2R,4R)-2-cyano-4-(methylamino)cyclohexyl]-3-({4-[(trifluoromethyl)sulfonyl]phenyl}amino)-1H-pyrazole-4-carboxamide] was tested. Which IC50 did it give?
A: Its IC50 is 3 nM.

Target: JAK2 (recombinant purified GST-tagged catalytic domain) (Homo sapiens (Human), UniProt O60674);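 further: biochemical JAK kinase assay with HTRF detection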
Experiment: biochemical

Sequence of JAK2 (recombinant purified GST-tagged catalytic domain) (O60674 849-1124): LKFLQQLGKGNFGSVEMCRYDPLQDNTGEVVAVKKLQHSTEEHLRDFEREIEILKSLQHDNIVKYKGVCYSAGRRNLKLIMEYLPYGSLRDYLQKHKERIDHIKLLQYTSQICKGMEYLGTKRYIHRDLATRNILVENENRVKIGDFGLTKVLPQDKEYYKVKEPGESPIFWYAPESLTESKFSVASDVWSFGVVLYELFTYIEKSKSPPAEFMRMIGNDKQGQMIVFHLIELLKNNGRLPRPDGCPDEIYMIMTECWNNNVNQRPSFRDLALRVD

Q: For `N#C[C@H]1C[C@@H](O)CC[C@@H]1n1cc(C(N)=O)c(Nc2ccc(C3CC3)cc2)n1` (single isomer, unassigned) [Example 33-18, 1-[(1S,2S,4S or 1R,2R,4R)-2-cyano-4-hydroxycyclohexyl]-3-[(4-cyclopropylphenyl)amino]-1H-pyrazole-4-carboxamide], which IC50 is on record?
A: The IC50 was 10 nM.

Q: With `C[C@H](N[C@H]1CC[C@H](n2cc(C(N)=O)c(Nc3ccc(C(F)(F)F)nc3)n2)[C@@H](C#N)C1)C1CC1` (single isomer, unassigned) [Example 28-8, 1-[(1S,2S,4S or 1R,2R,4R)-2-cyano-4-{[(1S)-1-cyclopropylethyl]amino}cyclo-hexyl]-3-{[6-(trifluoromethyl)pyridin-3-yl]amino}-1H-pyrazole-4-carboxamide] as the molecule, how does the IC50 read?
A: The IC50 was 200 nM.

Q: With `CN(CC(F)(F)F)[C@H]1CCC(n2cc(C(N)=O)c(Nc3ccnc(F)c3)n2)[C@@H](C#N)C1` (single isomer, unassigned) [Example 28-233, 1-{(1S,2S,4S or 1R,2R,4R)-2-cyano-4-[methyl(2,2,2-trifluoroethyl)amino]cyclo-hexyl}-3-[(2-fluoropyridin-4-yl)amino]-1 H-pyrazole-4-carboxamide] as the molecule, how does the IC50 read?
A: The IC50 was 6 nM.

Q: For `CN[C@H]1CC[C@H](n2cc(C(N)=O)c(Nc3ccc(Cl)c(F)c3)n2)[C@@H](C#N)C1` (single isomer, unassigned) [Example 28-43, 3-[(4-chloro-3-fluorophenyl)amino]-1-[(1S,2S,4S or 1R,2R,4R)-2-cyano-4-(methylamino)cyclohexyl]-1H-pyrazole-4-carboxamide], which IC50 is on record?
A: Its IC50 is 26 nM.

Q: Which IC50 does the source give for `N#C[C@H]1C[C@@H](N2CCC2)CC[C@@H]1n1cc(C(N)=O)c(Nc2ccc([C@H](O)C(F)(F)F)cc2)n1` (single isomer, unassigned) [Example 28-47, 1-[(1S,2S,4S or 1R,2R,4R)-4-azetidin-1-yl-2-cyanocyclohexyl]-3-({4-[(1S or 1R)-2,2,2-trifluoro-1-hydroxyethyl]phenyl}amino)-1H-pyrazole-4-carboxamide] here?
A: The IC50 was 11 nM.

Q: `N#C[C@H]1CCCC[C@@H]1n1cc(C(N)=O)c(Nc2ccc(Cl)c(F)c2)n1` (racemic) [Example 17-56, 3-[(4-chloro-3-fluorophenyl)amino]-1-[(1S,2S and 1R,2R)-2-cyanocyclohexyl]-1H-pyrazole-4-carboxamide] was tested. Which IC50 did it give?
A: The IC50 was 37 nM.

Q: With `CC1(CN[C@@H]2CC[C@H](n3cc(C(N)=O)c(Nc4ccc(C(F)(F)F)cc4)n3)[C@@H](C#N)C2)COC1` (single isomer, unassigned) [Example 28-16, 1-[(1S,2S,4R or 1R,2R,4S)-2-cyano-4-{[(3-methyloxetan-3-yl)methyl]amino}cyclohexyl]-3-{[4-(trifluoromethyl)phenyl]amino}-1H-pyrazole-4-carboxamide] as the molecule, how does the IC50 read?
A: Its IC50 is 21 nM.

Q: How did the IC50 turn out when `CC(C)(N[C@H]1CCC(n2cc(C(N)=O)c(Nc3ccccc3)n2)[C@@H](C#N)C1)C1CC1` (single isomer, unassigned) [Example 28-214, 1-{(1S,2S,4S or 1R,2R,4R)-2-cyano-4-[(1-cyclopropyl-1-methylethyl)amino]cyclohexyl}-3-(phenylamino)-1H-pyrazole-4-carboxamide] was run?
A: The IC50 was 38 nM.

Q: How did the IC50 turn out when `CC(C)(c1ccc(Nc2nn([C@H]3CCCC[C@@H]3C#N)cc2C(N)=O)cc1F)[C@@H](O)C(F)(F)F` (single isomer, unassigned) [Example 17-33, 1-[(1S,2S or 1R,2R)-2-cyanocyclohexyl]-3-({3-fluoro-4-[(2R or 2S)-3,3,3-trifluoro-2-hydroxy-1,1-dimethylpropyl]phenyl}amino)-1H-pyrazole-4-carboxamide] was run?
A: The IC50 was 4 nM.

Q: For `N#C[C@H]1C[C@@H](NCC(F)F)CC[C@@H]1n1cc(C(N)=O)c(Nc2ccnc(F)c2)n1` (single isomer, unassigned) [Example 28-115, 1-{(1S,2S,4S or 1R,2R,4R)-2-cyano-4-[(2,2-difluoroethyl)amino]cyclohexyl}-3-[(2-fluoropyridin-4-yl)amino]-1H-pyrazole-4-carboxamide], which IC50 is on record?
A: Its IC50 is 33 nM.

Q: Which IC50 does the source give for `CN(CC1CC1)[C@@H]1CC[C@H](n2cc(C(N)=O)c(Nc3ccc(C(F)(F)F)cc3)n2)[C@@H](C#N)C1` (single isomer, unassigned) [Example 30-2, 1-{(1S,2S,4R or 1R,2R,4S)-2-cyano-4-[(cyclopropyl-methyl)(methyl)amino]cyclo-hexyl}-3-{[4-(trifluoromethyl)phenyl]amino}-1H-pyrazole-4-carboxamide] here?
A: Its IC50 is 135 nM.

Q: With `CC1(C)CN([C@@H]2CC[C@H](n3cc(C(N)=O)c(Nc4ccc([C@H](O)C(F)(F)F)cc4)n3)[C@@H](C#N)C2)C1` (single isomer, unassigned) [Example 28-44, 1-[(1S,2S,4R or 1R,2R,4S)-2-cyano-4-(3,3-dimethylazetidin-1-yl)cyclohexyl]-3-({4-[(1S or 1R)-2,2,2-trifluoro-1-hydroxyethyl]phenyl}amino)-1H-pyrazole-4-carboxamide] as the molecule, how does the IC50 read?
A: Its IC50 is 11 nM.

Q: For `CC(N[C@H]1CC[C@H](n2cc(C(N)=O)c(Nc3ccc(S(=O)(=O)C(F)(F)F)cc3)n2)[C@@H](C#N)C1)C1CC1` (single isomer, unassigned) [Example 28-176, 1-[(1S,2S,4S or 1R,2R,4R)-2-cyano-4-{[(1R)-1-cyclopropylethyl]amino}cyclo-hexyl]-3-({4-[(trifluoromethyl)sulfonyl]phen-yl}amino)-1H-pyrazole-4-carboxamide], which IC50 is on record?
A: The IC50 was 11 nM.

Q: How did the IC50 turn out when `N#C[C@H]1C[C@@H](N2CCC2)CC[C@@H]1n1cc(C(N)=O)c(Nc2ccc([C@@H](O)C(F)(F)F)cc2)n1` (single isomer, unassigned) [Example 28-87, 1-[(1S,2S,4S or 1R,2R,4R)-4-azetidin-1-yl-2-cyanocyclohexyl]-3-({4-[(1R or 1S)-2,2,2-trifluoro-1-hydroxyethyl]phenyl}amino)-1H-pyrazole-4-carboxamide] was run?
A: Its IC50 is 13 nM.

Q: How did the IC50 turn out when `N#C[C@H]1C[C@H](N2CCC2)CC[C@@H]1n1cc(C(N)=O)c(Nc2ccc([C@@H](O)C(F)(F)F)cc2)n1` (single isomer, unassigned) [Example 28-85, 1-[(1S,2S,4R or 1R,2R,4S)-4-azetidin-1-yl-2-cyanocyclohexyl]-3-({4-[(1R or 1S)-2,2,2-trifluoro-1-hydroxyethyl]phenyl}amino)-1H-pyrazole-4-carboxamide] was run?
A: Its IC50 is 17 nM.

Q: How did the IC50 turn out when `N#C[C@@H]1CCCC[C@H]1n1cc(C(N)=O)c(Nc2ccc(S(=O)(=O)C(F)F)cc2)n1` (single isomer, unassigned) [Example 43-5, 1-[(1S,2S or 1R,2R)-2-cyanocyclohexyl]-3-({4-[(difluoromethyl)sulfonyl]phenyl}amino)-1H-pyrazole-4-carboxamide] was run?
A: Its IC50 is 28 nM.

Q: How did the IC50 turn out when `CS(=O)(=O)c1ccc(Nc2nn(C3CCCC[C@@H]3C#N)cc2C(N)=O)cc1F` (mixture of isomers) [Example 17-8, 1-[(1S,2S and 1R,2R)-2-cyanocyclohexyl]-3-{[3-fluoro-4-(methylsulfonyl)phenyl]amino}-1H-pyrazole-4-carboxamide] was run?
A: The IC50 was 10 nM.

Q: Which IC50 does the source give for `N#C[C@H]1C[C@@H](NCC(F)(F)F)CCC1n1cc(C(N)=O)c(Nc2ccc(S(=O)(=O)C(F)(F)F)cc2)n1` (mixture of isomers) [Example 27-11, 1-{(1S,2S,4S and 1R,2R,4R)-2-cyano-4-[(2,2,2-trifluoroethyl)amino]cyclohexyl}-3-({4-[(trifluoromethyl)sulfonyl]phenyl}amino)-1H-pyrazole-4-carboxamide] here?
A: Its IC50 is 6 nM.

Q: How did the IC50 turn out when `CS(=O)(=O)c1ccc(Nc2nn([C@H]3CC[C@@H](N4CC5(CCC5)C4)C[C@@H]3C#N)cc2C(N)=O)cc1` (single isomer, unassigned) [Example 28-145, 1-[(1S,2S,4R or 1R,2R,4S)-4-(2-azaspiro[3.3]hept-2-yl)-2-cyanocyclohexyl]-3-{[4-(methylsulfonyl)phenyl]amino}-1H-pyrazole-4-carboxamide] was run?
A: Its IC50 is 15 nM.

Q: Which IC50 does the source give for `CN([C@H]1CCC(n2cc(C(N)=O)c(Nc3ccc(Cl)cc3)n2)[C@@H](C#N)C1)C1(C)COC1` (single isomer, unassigned) [Example 28-232, 3-[(4-chlorophenyl)amino]-1-{(1S,2S,4S or 1R,2R,4R)-2-cyano-4-[methyl(3-methyloxetan-3-yl)amino]cyclohexyl}-1H-pyrazole-4-carboxamide] here?
A: Its IC50 is 7 nM.

Q: Which IC50 does the source give for `CCNC1CCC(n2cc(C(N)=O)c(Nc3ccc(S(=O)(=O)C(F)(F)F)cc3)n2)[C@@H](C#N)C1` (mixture of isomers) [Example 27-5, 1-[(1S,2S and 1R,2R)-2-cyano-4-(ethylamino)cyclohexyl]-3-({4-[(trifluoromethyl)sulfonyl]phenyl}amino)-1H-pyrazole-4-carboxamide] here?
A: Its IC50 is 11 nM.

Q: `CS(=O)(=O)c1ccc(Nc2nn([C@H]3CC[C@H](N4CC5(CCC5)C4)C[C@@H]3C#N)cc2C(N)=O)cc1` (single isomer, unassigned) [Example 28-130, 1-[(1S,2S,4S or 1R,2R,4R)-4-(2-azaspiro[3.3]hept-2-yl)-2-cyanocyclohexyl]-3-{[4-(methylsulfonyl)phenyl]amino}-1H-pyrazole-4-carboxamide] was tested. Which IC50 did it give?
A: Its IC50 is 5 nM.
